Laboratory results: patent US20250011878A1, “METHOD TO DETECT RNA BIOMARKERS” (ITALFARMACO SPA, priority 2021, published 2025)
Like-named read-outs stand apart in the source and are kept apart here.

Legend:
[1] = tested on: PD-L1; assay: PD-L1 surface expression on human monocytes stimulated with TNF-α; assay type: cell-based
[2] = tested on: macrophages; assay: in vitro macrophage differentiation in the presence of ITF3756; assay type: cell-based
[3] = tested on: PBMC; assay: Quantitative real-time PCR gene modulation in PBMC; assay type: cell-based, human; details: PBMC treated with 1 μM ITF3756, 4 hours; qPCR vs vehicle-treated cells
Experimental: The gene expression has been determined by comparing the expression of the above genes in the treated cells versus vehicle-treated cells. PBMC were resuspended in RPMI 1640 medium (Dutch modified, ThermoFisher) at the density of 1×10^6 cells/ml. Cells were plated in 6-well plates (Corning), 3 ml per well. Cells were treated with […] at four concentrations: 0.25, 0.5, 1 and 2 μM. Each treatment concentration was replicated in 3 wells for experimental triplicate test. Vehicle (DMSO 0.05%) treated cells were plated at the same density and volumes. Plates were incubated for 4 hours at 37° C. 5% C02. At the end of treatment incubation cells were collected for total RNA extraction. After treatment with the test compound, PBMC were withdrawn from 6-well plates and collected in 15 ml tubes (Falcon). Wells were washed once with 1 ml of PBS pH 7.4 (ThermoFisher) and the wash volume was added to the collected cell suspensions. […] RNA concentration was determined using Nano Drop 1000 spectrophotometer. […] 3 μl of cDNA corresponding to 40 ng of template were added to PCR reaction reagent for a total volume of 15 μl as shown below: The level of mRNA expression modulation was evaluated comparing the mRNA level in treated versus not-treated samples; all data were normalized versus the average expression signal of three housekeeping genes (reference genes: UBC, B2M and HPRT1) in the corresponding samples. […]

[4] = mouse, in vivo, 1000 mg/kg
[5] = dog, in vivo, 1000 mg/kg

O=C(NO)c1ccc(Cn2nnnc2-c2cccs2)cc1 [ITF3756, N-hydroxy-4-((5-(thiophen-2-yl)-1 H-tetrazol-1-yl)methyl)benzamide]
surface expression of PD-L1 (upregulation by TNF-α) [1]: inhibited
M1 macrophages [2]: increase in M1 macrophages
IRF6 gene modulation [3]: upregulation
STAB1 gene modulation [3]: downmodulation
tolerability [4]: well tolerated
tolerability [5]: well tolerated
